From US8633242B2, “Benzylidene indanones and processes for preparation and use thereof” (Council of Scientific and Industrial Research, priority 2011, dated 2014)
“Also recorded” adds a separate entry of the source. Like-named read-outs stand apart in the source and are kept apart here.

Tests used:
[1] = system: PC-3 (prostate); assay: Sulphorhodamine B cytotoxicity assay, PC-3; format: cell-based, human; set-up: key to Human cancer cell lines IC50, PC-3 (prostate): Inactive: inactive, if IC50 > 100 μM; details: SRB assay, 48 hours incubation
Method: (§1) The benzylidene analogues were evaluated by Sulphorhodamine B Assay as per reported method [Skehan et al., J. Natl. Cancer Inst. 1990, 82, 1107]. The human cancer cell lines procured from National Cancer institute, Frederick, U.S.A. were used in present study. Cells were grown in tissue culture flasks in complete growth medium (RPMI-1640 medium with 2 mM glutamine, pH 7.4 supplemented with 10% fetal bovine serum, 100 μg/ml streptomycin and 100 units/ml penicillin) in a carbon dioxide incubator (37° C., 5% CO2, 90% RH). The cells at subconfluent stage were harvested from the flask by treatment with trypsin (0.05% in PBS (pH 7.4) containing 0.02% EDTA). Cells with viability of more than 98%, as determined by trypan blue exclusion, were used for determination of cytotoxicity. The cell suspension required concentration of cells was prepared in complete growth medium. Stock solution of 2×10^−2 M of compounds were prepared in DMSO and further dilution was carried out complete growth medium containing 50 μg/ml of gentamycin to obtained working test solution of required concentration. In vitro cytotoxicity against various human cancer cell lines was determined using 96-well cell culture plates. The 100 μl of cell suspension was added to each well of the 96-well cell culture plates. The cells were allowed to grow in CO2 incubator (37° C., 5% CO2, 90% RH) for 24 hours. The test materials in complete growth medium (100 μl) were added after 24 hours incubation to the wells containing cell suspension. The plates were further incubated for 48 hours (37° C. in an atmosphere of 5% CO2 and 90% relative humidity) in a carbon dioxide incubator after addition of test material and then the cell growth was stopped by gently layering trichloroacetic acid (50% TCA, 50 μl) on top of the medium in all the wells. The plates were incubated at 4° C. for one hour to fix the cells attached to the bottom of the wells. The liquid of all the wells was gently pipetted out and discarded. The plates were washed five times with distilled water to remove TCA, growth medium low molecular weight metabolites, serum proteins etc. and air-dried. Cell growth was measured by staining with sulforhodamine B dye. The adsorbed dye was dissolved in Tris-HCl Buffer (100 μl/well, 0.01M, pH 10.4) and plates were gently stirred for 10 minutes on a mechanical stirrer. The optical density (OD) was recorded on ELISA reader at 540 nm. 5-Fluorouracil, Paclitaxel (Taxol), Mitomycin-c and Adriamycin were used as positive controls.

[2] = system: THP-1 (Leukemia); assay: Sulphorhodamine B cytotoxicity assay, THP-1; format: cell-based, human
Method: as §1

[3] = system: Swiss albino mice; details: mouse, in vivo; for ALKP / Body weight / Haemoglobin / SGOT / SGPT / Serum creatinine / Serum total cholesterol / Serum triglycerides: po
Method: In view of potent anti-cancer activity of compound 8 in in-vitro model, acute oral toxicity of the same was carried out in Swiss albino mice for its further development into drug product. For the study, 30 mice (15 male and 15 female) were taken and divided into five groups comprising 3 male and 3 female mice in each group weighing between 20-25 g. The animals were maintained at 22±5° C. with humidity control and also on an automatic dark and light cycle of 12 hours. The animals were fed with the standard rat feed and provided ad libitum drinking water. Mice of group 1 were kept as control and animals of groups […] were kept as experimental. The animals were acclimatized for 7 days in the experimental environment prior to the actual experimentation. The test compound was suspended by ultrasonication in cremophore EL (20% in distilled water) using traces of ethanol as a co-solvent and was given at 5, 50, 300 and 1000 mg/kg body weight to animals of groups 2, 3, 4 and 5 respectively. Control animals received only vehicle.
The animals were checked for mortality and any signs of ill health at hourly interval on the day of administration of drug and there after a daily general case side clinical examination was carried out including changes in skin, mucous membrane, eyes, occurrence of secretion and excretion and also responses like lachrymation, pilo-erection respiratory patterns etc. Also changes in gait. posture and response to handling were also recorded (Allan at al., 2007). In addition to observational study, body weights were recorded and blood and serum samples were collected from all the animals on 7th day after experiment and were analysed for total RBC, WBC, differential leucoyte count haemoglobin percentage and biochemical parameters like total cholesterol, triglycerides, creatinine, SGPT and SGOT activity. The animals were then sacrificed and were necropsed for any gross pathological changes. Weights of vital organs like liver, heart, kidney etc. were recorded (Chanda et al., 2009).

[4] = system: tubulin protein; assay: In-vitro tubulin polymerisation inhibition assay; format: biochemical
Method: The tubulin polymerization experiment was performed using ‘assay kit’ (Cytoskeleton USA) following manufacturer's protocol based on the procedure described by of Shelanski et al. (1973) and Lee et al. (1977). Briefly, tubulin protein (3 mg/mL) in tubulin polymerization buffer (80 mM PIPES, pH 6.9, 2 mM MgCl2, 0.5 mM EGTA, 1 mM GTP and 15% glycerol) was placed in pre-warmed 96-well microtiter plates at 37° C. in the presence of test compounds with variable concentrations. All samples were mixed well and polymerization was monitored kinetically at 340 nm every min for 1 h using a Spectramax plate reader. Podophyllotoxin and etoposide were used as positive controls and DMSO as negative control. The IC50 value was determined from dose-dependent analysis and is defined as the concentration that inhibits the rate of polymerization by 50%.
Podophyllotoxin and etoposide, standard tubulin polymerisation inhibitors were used as positive controls.

[5] = system: A549 (Lung); assay: Sulphorhodamine B cytotoxicity assay, A549; format: cell-based, human; details: Homo sapiens, A549; SRB assay, 48 hours incubation; read-out: Human cancer cell lines IC50, A549 (Lung)
Method: as §1

COc1cc(C2/C(=C/c3ccc4c(c3)OCO4)C(=O)c3cc(OC)c(OC)c(OC)c32)cc(OC)c1OC (racemic) [Compound 8, 2-(3,4-Methylenedioxybenzylidine), 3-(3,4,5-trimethoxyphenyl), 4,5,6-trimethoxyindanone]
Human cancer cell lines IC50, PC-3 (prostate) [1]: Inactive | activity against leukemia cell lines (THP), in words [2]: potent activity | IC50 ([2]; Homo sapiens, THP-1, SRB assay, 48 hours incubation, read-out: Human cancer cell lines IC50, THP-1 (Leukemia)): 4.9 µM | observational changes, morbidity and mortality ([3]; 300 mg/kg): No observational changes, morbidity and mortality | ALKP ([3]; 5 mg/kg): 82.51 ± 3.04 U/L | Body weight ([3]; 5 mg/kg): 30.38 ± 0.77 g | Haemoglobin ([3]; 5 mg/kg): 11.31 ± 1.14 g/dL | SGOT ([3]; 5 mg/kg): 18.74 ± 1.54 U/L | SGPT ([3]; 5 mg/kg): 6.90 ± 0.17 U/L | Serum creatinine ([3]; 5 mg/kg): 0.53 ± 0.04 mg/dL | Serum total cholesterol ([3]; 5 mg/kg): 109.42 ± 5.46 mg/dL | Serum triglycerides ([3]; 5 mg/kg): 112.69 ± 3.75 mg/dL | ALKP ([3]; 50 mg/kg): 94.24 ± 8.83 U/L | Body weight ([3]; 50 mg/kg): 28.37 ± 1.42 g | Haemoglobin ([3]; 50 mg/kg): 12.93 ± 0.98 g/dL | SGOT ([3]; 50 mg/kg): 20.66 ± 1.15 U/L | SGPT ([3]; 50 mg/kg): 9.77 ± 0.77 U/L | Serum creatinine ([3]; 50 mg/kg): 0.45 ± 0.05 mg/dL | Serum total cholesterol ([3]; 50 mg/kg): 125.69 ± 5.90 mg/dL | Serum triglycerides ([3]; 50 mg/kg): 90.62 ± 8.41 mg/dL | ALKP ([3]; 300 mg/kg): 90.11 ± 5.42 U/L | Body weight ([3]; 300 mg/kg): 29.35 ± 1.63 g | Haemoglobin ([3]; 300 mg/kg): 11.46 ± 0.76 g/dL | SGOT ([3]; 300 mg/kg): 26.55 ± 3.23 U/L | SGPT ([3]; 300 mg/kg): 9.16 ± 1.14 U/L | Serum creatinine ([3]; 300 mg/kg): 0.56 ± 0.07 mg/dL | Serum total cholesterol ([3]; 300 mg/kg): 117.57 ± 3.45 mg/dL | Serum triglycerides ([3]; 300 mg/kg): 113.15 ± 3.65 mg/dL | Body weight ([3]; 1000 mg/kg): 30.69 ± 0.83 g | Haemoglobin ([3]; 1000 mg/kg): 12.21 ± 1.46 g/dL | SGOT ([3]; 1000 mg/kg): 19.38 ± 3.49 U/L | Serum creatinine ([3]; 1000 mg/kg): 0.42 ± 0.09 mg/dL | Serum total cholesterol ([3]; 1000 mg/kg): 118.60 ± 6.07 mg/dL | Serum triglycerides ([3]; 1000 mg/kg): 97.44 ± 6.96 mg/dL | inhibition of tubulin polymerisation, in words [4]: tubulin polymerisation inhibition; also recorded: strong inhibition | IC50 ([4]; read-out: Tubulin polymerisation inhibition IC50, tubulin 3 mg/mL, 37° C., 340 nm, 1 h): 0.63 µM | IC50 [5]: 11 µM
